This note sets out measurements from ChEMBL document CHEMBL1152008, “N,N-disubstituted benzopyran-4-(N-cyano)carboxamidines, cromakalim analogs with selective activity for guinea pig trachealis” (Bioorg Med Chem Lett, 1993).

Usually EC50 stands for the concentration giving half of the maximal effect. The low end stands for a more potent agent, the high end for a less potent agent.

Type in all cases: functional
For assay [1], the species on record is Cavia porcellus. The assay can be described thus: Tested for relaxation of guinea pig trachealis smooth muscle.
For assay [2], the species on record is Rattus norvegicus. The assay can be described thus: Tested for relaxation of rat aorta smooth muscle precontracted with 30 mM KCI by 50%, activity expresses as negative logarithm of molar concentration.
Assay [3] is filed under the species Cavia porcellus. In words: Tested for the ability to inhibit spontaneous tone in guinea pig trachealis by 50%, activity expresses as negative logarithm of molar concentration.
The species named for assay [4] is Rattus norvegicus. The assay can be described thus: Tested for relaxation of rat aorta smooth muscle.

`C/N=C(/NC#N)C1=CC(C)(C)Oc2ccc([N+](=O)[O-])cc21`: the IA stood at 86.5% in assay [1] and 79.9% in assay [4]. Further, the concentration for a half-maximal effect (EC50) was 15.1 nM in assay [2] and 23.4 nM in assay [3].

Turning to `C/N=C(/NC#N)C1=CC(C)(C)Oc2ccc(C#N)cc21`, the IA in assay [1] came out at 86%; in assay [4], 73%. Further, the EC50 in assay [3] was 646 nM.

Consider `CCN(CC)/C(=N\C#N)C1=CC(C)(C)Oc2ccc([N+](=O)[O-])cc21`, for which the EC50 in assay [2] and in assay [3] was greater than 31600 nM each time.

For the compound `CN(C)/C(=N\C#N)C1=CC(C)(C)Oc2ccc([N+](=O)[O-])cc21`, the IA in assay [1] is 90.6%. The compound further showed an EC50 in assay [2] greater than 31600 nM.

The compound `CCN(C)/C(=N\C#N)C1=CC(C)(C)Oc2ccc([N+](=O)[O-])cc21` showed an IA in assay [1] of 77.9%. Also, the figures for the EC50 in assay [2] and in assay [3] were greater than 31600 nM and 178 nM, respectively.

With `CC/N=C(/NC#N)C1=CC(C)(C)Oc2ccc([N+](=O)[O-])cc21`, the results for the IA in assay [1] and in assay [4] were 85.3% and 75.1%, respectively. Further, the EC50 in assay [2] was 89.1 nM; in assay [3], 170 nM.

With `CC1(C)Oc2ccc(C#N)cc2[C@H](N2CCCC2=O)[C@H]1O` (single isomer, unassigned) [(-)-CROMAKALIM], the IA in assay [1] was determined as 85.1%; in assay [4] it was 74.7%.

With `CC(N/C(=N\C#N)Nc1ccncc1)C(C)(C)C` (configuration not stated) [PINACIDIL ANHYDROUS], the IA in assay [1] is reported as 97.3%; in assay [4], 91.9%.
